Measured values taken from patent US8987250B2 (Gilead Sciences, Inc., priority 2012, dated 2015).

system: HIV-IIIb; assay: Test A: Antiviral Assay in MT4 Cells; format: cell-based; details: Human immunodeficiency virus 1, IIIB, MT4, 120 h
Summary of the method: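 Read-out: CellTiter-Glo chemiluminescence after 5-day incubation at 37 °C. Compounds tested as 3-fold serial dilutions (10 concentrations, quadruplicate) in RPMI 1640 with 10% FBS, on MT-4 cells pre-infected at 37 °C with HIV-IIIb at 0.004 m.o.i.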

SMILES	EC50 [nM]
Cc1cc2nc(N3CCn4c(nnc4C(F)(F)F)C3)sc2c(-c2ccc(Cl)cc2)c1[C@H](OC(C)(C)C)C(=O)O [Compound 250, (S)-2-tert-butoxy-2-(7-(4-chlorophenyl)-5-methyl-2-(3-(trifluoromethyl)-5,6-dihydro-[1,2,4]triazolo[4,3-a]pyrazin-7(8H)-yl)benzo[d]thiazol-6-yl)acetic acid]	235
Cc1cc2nc(-c3cccc(N4CCN(C(C)C)CC4)n3)sc2c(-c2ccc(Cl)cc2)c1[C@H](OC(C)(C)C)C(=O)O [Compound 307, (S)-2-tert-butoxy-2-(7-(4-chlorophenyl)-2-(6-(4-isopropylpiperazin-1-yl)pyridin-2-yl)-5-methylbenzo[d]thiazol-6-yl)acetic acid]	4

same assay, conditions: Human immunodeficiency virus 1, IIIB, MT4, 120 h, Table 1; MT-4 cells infected with HIV-IIIb, 5 days of incubation, CellTiter-Glo; read-out: EC50

SMILES	EC50 [nM]
Cc1c([C@H](OC(C)(C)C)C(=O)O)c(-c2ccc3c4c(ccnc24)CCO3)c2sc(N3CCC3)nc2c1F (atropisomer, axis not shown) [Compound 76, (S)-2-((S)-2-(azetidin-1-yl)-7-(2,3-dihydropyrano[4,3,2-de]quinolin-7-yl)-4-fluoro-5-methylbenzo[d]thiazol-6-yl)-2-tert-butoxyacetic acid]	26
Cc1cc2nc(-c3ccnc(-c4cnn(C)c4)c3)sc2c(-c2ccc(Cl)cc2)c1[C@H](OC(C)(C)C)C(=O)O [Compound 154]	16
Cc1cc2nc(-n3cc(-c4ccc5c(cnn5C)c4)ccc3=O)sc2c(-c2ccc(Cl)cc2)c1[C@H](OC(C)(C)C)C(=O)O [Compound 118, (S)-2-tert-butoxy-2-(7-(4-chlorophenyl)-5-methyl-2-(5-(1-methyl-1H-indazol-5-yl)-2-oxopyridin-1(2H)-yl)benzo[d]thiazol-6-yl)acetic acid]	101

same assay, conditions: Human immunodeficiency virus 1, IIIB, MT4, 120 h, Table 2; MT-4 cells infected with HIV-IIIb, 5 days of incubation, CellTiter-Glo; read-out: EC50

SMILES	EC50 [nM]
Cc1cc2nc(-c3ccnc(N4CCc5cnccc54)c3)sc2c(-c2ccc(Cl)cc2)c1[C@H](OC(C)(C)C)C(=O)O [Compound 245, (S)-2-tert-butoxy-2-(7-(4-chlorophenyl)-2-(2-(2,3-dihydro-1H-pyrrolo[3,2-c]pyridin-1-yl)pyridin-4-yl)-5-methylbenzo[d]thiazol-6-yl)acetic acid]	9
Cc1cc2nc(-c3csc(N4CCN(C(C)C)CC4)n3)sc2c(-c2ccc(Cl)cc2)c1[C@H](OC(C)(C)C)C(=O)O [Compound 484, (S)-2-tert-butoxy-2-(7-(4-chlorophenyl)-2-(2-(4-isopropylpiperazin-1-yl)thiazol-4-yl)-5-methylbenzo[d]thiazol-6-yl)acetic acid]	9
Cc1cc2nc(-c3ccc4c(c3)CC(=O)N4)sc2c(-c2ccc(Cl)cc2)c1[C@H](OC(C)(C)C)C(=O)O [Compound 240, (S)-2-tert-butoxy-2-(7-(4-chlorophenyl)-5-methyl-2-(2-oxoindolin-5-yl)benzo[d]thiazol-6-yl)acetic acid]	76
Cc1cc2nc(-c3ccnc(-c4cnc5c(c4)OCC(=O)N5)c3)sc2c(-c2ccc(Cl)cc2)c1[C@H](OC(C)(C)C)C(=O)O [Compound 184, (S)-2-tert-butoxy-2-(7-(4-chlorophenyl)-5-methyl-2-(2-(3-oxo-3,4-dihydro-2H-pyrido[3,2-b][1,4]oxazin-7-yl)pyridin-4-yl)benzo[d]thiazol-6-yl)acetic acid]	19
Cc1cc2nc(-c3ccn4c(C)nnc4c3)sc2c(-c2ccc(Cl)cc2)c1[C@H](OC(C)(C)C)C(=O)O [Compound 317, (S)-2-tert-butoxy-2-(7-(4-chlorophenyl)-5-methyl-2-(3-methyl-[1,2,4]triazolo[4,3-a]pyridin-7-yl)benzo[d]thiazol-6-yl)acetic acid]	13
Cc1cc2nc(-c3ccnc(-c4ccc5c(c4)c(=O)n(C)n5C)c3)sc2c(-c2ccc(Cl)cc2)c1[C@H](OC(C)(C)C)C(=O)O [Compound 461]	14
Cc1cc2nc(-c3ccnc(-c4ccc5c(c4)NC(=O)CO5)c3)sc2c(-c2ccc(Cl)cc2)c1[C@H](OC(C)(C)C)C(=O)O [Compound 394]	25
Cc1cc2nc(-c3ccc4nnn(C)c4c3)sc2c(-c2ccc(Cl)cc2)c1[C@H](OC(C)(C)C)C(=O)O [Compound 316, (S)-2-tert-butoxy-2-(7-(4-chlorophenyl)-5-methyl-2-(1-methyl-1H-benzo[d][1,2,3]triazol-6-yl)benzo[d]thiazol-6-yl)acetic acid]	18
Cc1cc2nc(-c3cc(-c4ccc5c(cnn5C)c4)cnc3C)sc2c(-c2ccc(Cl)cc2)c1[C@H](OC(C)(C)C)C(=O)O [Compound 306, (S)-2-tert-butoxy-2-(7-(4-chlorophenyl)-5-methyl-2-(2-methyl-5-(1-methyl-1H-indazol-5-yl)pyridin-3-yl)benzo[d]thiazol-6-yl)acetic acid]	14
Cc1cc2nc(-c3ccnc(-c4ccc5c(c4)OCC(=O)N5C)c3)sc2c(-c2ccc(Cl)cc2)c1[C@H](OC(C)(C)C)C(=O)O [Compound 389]	7
Cc1cc2nc(-c3nc(-c4ccc5c(cnn5C)c4)ccc3N)sc2c(-c2ccc(Cl)cc2)c1[C@H](OC(C)(C)C)C(=O)O [Compound 311, (S)-2-(2-(3-amino-6-(1-methyl-1H-indazol-5-yl)pyridin-2-yl)-7-(4-chlorophenyl)-5-methylbenzo[d]thiazol-6-yl)-2-tert-butoxyacetic acid]	45
Cc1cc2nc(-c3ccnc(-c4ccc5c(ccc(=O)n5C)c4)c3)sc2c(-c2ccc(Cl)cc2)c1[C@H](OC(C)(C)C)C(=O)O [Compound 191, (S)-2-tert-butoxy-2-(7-(4-chlorophenyl)-5-methyl-2-(2-(1-methyl-2-oxo-1,2-dihydroquinolin-6-yl)pyridin-4-yl)benzo[d]thiazol-6-yl)acetic acid]	10
Cc1cc2nc(C3CC=Cc4nn(C)cc43)sc2c(-c2ccc(Cl)cc2)c1[C@H](OC(C)(C)C)C(=O)O (stereo partly shown) [Compound 384]	332
Cc1cc2nc(-c3ccc4nc(C)n(C5CN(C)C5)c4c3)sc2c(-c2ccc(Cl)cc2)c1[C@H](OC(C)(C)C)C(=O)O [Compound 297, (S)-2-tert-butoxy-2-(7-(4-chlorophenyl)-5-methyl-2-(2-methyl-1-(1-methylazetidin-3-yl)-1H-benzo[d]imidazol-6-yl)benzo[d]thiazol-6-yl)acetic acid]	17
Cc1cc2nc(-c3ccc4c(c3)c(N3CCN(C(C)C)CC3)nn4C)sc2c(-c2ccc(Cl)cc2)c1[C@H](OC(C)(C)C)C(=O)O [Compound 269, (S)-2-tert-butoxy-2-(7-(4-chlorophenyl)-2-(3-(4-isopropylpiperazin-1-yl)-1-methyl-1H-indazol-5-yl)-5-methylbenzo[d]thiazol-6-yl)acetic acid]	12
Cc1cc2nc(-c3ccc(-c4ccc(Br)cc4)cc3)sc2c(-c2ccc(Cl)cc2)c1[C@H](OC(C)(C)C)C(=O)O [Compound 354]	1370
Cc1cc2nc(-c3ccnc(N4CCC(N(C)C)CC4)n3)sc2c(-c2ccc(Cl)cc2)c1[C@H](OC(C)(C)C)C(=O)O [Compound 334]	5
Cc1cc2nc(N3Cc4cccnc4C3)sc2c(-c2ccc(Cl)cc2)c1[C@H](OC(C)(C)C)C(=O)O [Compound 431]	18
Cc1cc2nc(-c3ccnc(-c4cnc5[nH]cc(C)c5c4)c3)sc2c(-c2ccc(Cl)cc2)c1[C@H](OC(C)(C)C)C(=O)O [Compound 498, (S)-2-tert-butoxy-2-(7-(4-chlorophenyl)-5-methyl-2-(2-(3-methyl-1H-pyrrolo[2,3-b]pyridin-5-yl)pyridin-4-yl)benzo[d]thiazol-6-yl)acetic acid]	34
Cc1cc2nc(-c3ccnc(C4=CCOCC4)n3)sc2c(-c2ccc(Cl)cc2)c1[C@H](OC(C)(C)C)C(=O)O [Compound 341]	14
Cc1cc2nc(-c3ccnc(-c4ccc5c(cnn5C)c4C)c3)sc2c(-c2ccc(Cl)cc2)c1[C@H](OC(C)(C)C)C(=O)O [Compound 417]	18
Cc1cc2nc(-c3ccc4c(n3)c(N3CCN(C)CC3)nn4C)sc2c(-c2ccc(Cl)cc2)c1[C@H](OC(C)(C)C)C(=O)O [Compound 495, (S)-2-tert-butoxy-2-(7-(4-chlorophenyl)-5-methyl-2-(1-methyl-3-(4-methylpiperazin-1-yl)-1H-pyrazolo[4,3-b]pyridin-5-yl)benzo[d]thiazol-6-yl)acetic acid]	4
Cc1cc2nc(-c3ccc4c(c3)c(C)nn4Cc3ccccc3)sc2c(-c2ccc(Cl)cc2)c1[C@H](OC(C)(C)C)C(=O)O [Compound 314, (S)-2-(2-(1-benzyl-3-methyl-1H-indazol-5-yl)-7-(4-chlorophenyl)-5-methylbenzo[d]thiazol-6-yl)-2-tert-butoxyacetic acid]	42
COc1cnc(-c2ccc3c(cnn3C)c2)cc1-c1nc2cc(C)c([C@H](OC(C)(C)C)C(=O)O)c(-c3ccc(Cl)cc3)c2s1 [Compound 288, (S)-2-(tert-butoxy)-2-(7-(4-chlorophenyl)-2-(5-methoxy-2-(1-methyl-1H-indazol-5-yl)pyridin-4-yl)-5-methylbenzo[d]thiazol-6-yl)acetic acid]	65

same assay, conditions: Table 1; MT-4 cells infected with HIV-IIIb, 5 days of incubation, CellTiter-Glo; read-out: EC50

SMILES	EC50 [nM]
Cc1cc2nc(N3CC(F)(F)C3)sc2c(-c2ccc3c4c(ccnc24)CCO3)c1[C@H](OC(C)(C)C)C(=O)O (atropisomer, axis not shown) [Compound 52, (S)-2-tert-butoxy-2-((S)-2-(3,3-difluoroazetidin-1-yl)-7-(2,3-dihydropyrano[4,3,2-de]quinolin-7-yl)-5-methylbenzo[d]thiazol-6-yl)acetic acid]	53.4

same assay, conditions: Table 2; MT-4 cells infected with HIV-IIIb, 5 days of incubation, CellTiter-Glo; read-out: EC50

SMILES	EC50 [nM]
Cc1cc2nc(-c3ccc4c(c3)c(N3CCN(C(C)C(F)(F)F)CC3)nn4C)sc2c(-c2ccc(Cl)cc2)c1[C@H](OC(C)(C)C)C(=O)O (stereo partly drawn) [Compound 493, (2S)-2-tert-butoxy-2-(7-(4-chlorophenyl)-5-methyl-2-(1-methyl-3-(4-((2R/2S)-1,1,1-trifluoropropan-2-yl)piperazin-1-yl)-1H-indazol-5-yl)benzo[d]thiazol-6-yl)acetic acid]	51
